Values belong to the molecule of their own block, whether it stands above or below them.
Experiment: Capsule perfume leakage in liquid fabric enhancer (LFE), headspace SPME GC/MS
Assay type: physicochemical
Conditions: LFE Composition 1
Experimental: The testing of capsule leakage in liquid compositions (e.g., liquid fabric enhancer/“LFE” compositions and/or heavy-duty liquid/“HDL” detergents) is performed as follows. […] The 1 gram aliquot in the 7 ml vial is then mixed on a stirring plate for 24 h at 500 rpm, thereby ensuring that the capsules are broken by the grinding action of the stir bar against the bottom of the 7 ml vial. Optical microscopy can be used to verify that no more intact capsules remain. In case such capsules are found, the step is to repeated for an additional 24 h, or until all or almost all capsules are broken. Then, the formulation containing broken capsules is introduced into GC vials in a similar manner as for step (a). This yields total oil samples. […] It is to be noted that the capsule sample and the total oil sample are not analyzed on the same day, as there is a need to prepare the total oil sample after the capsule sample has been removed from storage. […] The perfume oil composition formulated herein is representative of the perfume oil composition that is present in the slurry. Then the free oil formulation is introduced into GC vials in a similar manner as for step (a). This yields reference samples, which must be used when analyzing both the capsule sample and the total oil sample. […] Two headspace vials are prepared for each sample. The sealed headspace vials are then allowed to equilibrate. Samples reach equilibrium after 3 hours at room temperature, but can be left to sit longer without detriment or change to the results, up until 24 hours after sealing the headspace vial. After equilibrating, the samples are analyzed by GC/MS. […] The perfume composition is analyzed by fast GC/MS in full scan mode. Ion extraction of the specific mass for each component is obtained. The leakage is calculated as follows, separately for the capsule sample and total oil sample, where “Area” denotes the area under the chromatogram peak corresponding to the PRM of interest: Once calculated for all PRMs for both the total oil sample and the capsule sample, the corrected PRM leakage can be calculated using the following formula: Once the corrected PRM leakage has been calculated for all PRMs, the Average leakage can be found by taking the arithmetic mean of each corrected PRM leakage. […] The resulting products are stored for one week at 35° C. At the end of the storage period, samples of each product composition are analyzed for perfume leakage out of the capsule using headspace analysis. The data is reported as a percentage, determined by comparing the amount of the individual perfume raw materials found in the headspace to the amount originally provided to the capsules.

[1] = PRM of Perfume 4 out of Comparative Example 9-1 capsules (per EP3078415A)
[2] = PRM of Perfume 4 out of Comparative Example 9-2 capsules (per EP3078415A, additional TEOS)
[3] = PRM of Perfume 4 out of Example 9-1 capsules (Sample E)
[4] = PRM of Perfume 3 out of Capsule Sample D
[5] = PRM of Perfume 2 out of Capsule Sample C

Compound: CC(C=O)Cc1ccc(C(C)(C)C)cc1 (stereo not drawn) [Lilial]
Leakage (as %) after 1 week at 35° C. [1]: 46%
Leakage (as %) after 1 week at 35° C. [2]: 61%
Leakage (as %) after 1 week at 35° C. [3]: 30%

Compound: CC(=O)OC(C)c1ccccc1 (stereo not drawn) [Methyl phenyl carbinyl acetate]
Leakage (as %) after 1 week at 35° C. [4]: 7%

Compound: CC(C)=CC1CC(C)CCO1 (stereo not drawn) [Rose Oxide]
Leakage (as %) after 1 week at 35° C. [4]: 8%

Compound: COC(=O)OC1CC/C=C\CCC1 (stereo not drawn) [[(4Z)-1-cyclooct-4-enyl] methyl carbonate]
Leakage (as %) after 1 week at 35° C. [5]: 5%

Compound: CC1=CCC(C(C)(C)O)CC1 (stereo not drawn) [alpha-Terpineol]
Leakage (as %) after 1 week at 35° C. [4]: 10%

Compound: CCOC(=O)C1CCC(C(=O)OCC)CC1 (stereo not drawn) [diethyl 1,4-cyclohexane dicarboxylate]
Leakage (as %) after 1 week at 35° C. [5]: 3%

Results, then the molecule that gave them:

Leakage (as %) after 1 week at 35° C. [1]: 34%
Leakage (as %) after 1 week at 35° C. [2]: 28%
Leakage (as %) after 1 week at 35° C. [3]: 3%
Compound: CCCCCCOC(=O)c1ccccc1O [Hexyl Salicylate]

Leakage (as %) after 1 week at 35° C. [1]: 22%
Leakage (as %) after 1 week at 35° C. [2]: 36%
Leakage (as %) after 1 week at 35° C. [3]: 7%
Compound: CCCCCC/C(C=O)=C\c1ccccc1 [Hexylcinnamyl aldehyde]

Leakage (as %) after 1 week at 35° C. [4]: 8%
Compound: CC1=CC(C)C(C=O)CC1 (stereo not drawn) [Ligustral-1]

Leakage (as %) after 1 week at 35° C. [4]: 4%
Compound: CCCCCCCCCC(C)C=O (stereo not drawn) [Methyl nonyl acetaldehyde]

Leakage (as %) after 1 week at 35° C. [4]: 11%
Compound: CCC=C(C)C(O)CCCCC (stereo not drawn) [Undecavertol]

Leakage (as %) after 1 week at 35° C. [4]: 5%
Compound: CC(=O)/C=C/C1=C(C)CCCC1(C)C [beta ionone]

— US12630785B2, “Liquid fabric care compositions comprising capsules” (The Procter & Gamble Company, priority 2020, dated 2026)
